The text below walks through data of patent US9278981B2, “Compounds and compositions for inhibiting the activity of ABL1, ABL2 and BCR-ABL1” (Novartis AG, priority 2012, dated 2016).

Assay [1] deals with T1, ABL1 (64-515) (Homo sapiens (Human), UniProt P00519). In words: Radio ABL1 (64-515) assay (radiometric filter-binding). The format is biochemical.
Assay [2] addresses T1, ABL1 (64-515). In words: Caliper ABL1 (64-515) assay (microfluidic mobility shift). In kind it is biochemical.

T1 sequence (P00519 64-515): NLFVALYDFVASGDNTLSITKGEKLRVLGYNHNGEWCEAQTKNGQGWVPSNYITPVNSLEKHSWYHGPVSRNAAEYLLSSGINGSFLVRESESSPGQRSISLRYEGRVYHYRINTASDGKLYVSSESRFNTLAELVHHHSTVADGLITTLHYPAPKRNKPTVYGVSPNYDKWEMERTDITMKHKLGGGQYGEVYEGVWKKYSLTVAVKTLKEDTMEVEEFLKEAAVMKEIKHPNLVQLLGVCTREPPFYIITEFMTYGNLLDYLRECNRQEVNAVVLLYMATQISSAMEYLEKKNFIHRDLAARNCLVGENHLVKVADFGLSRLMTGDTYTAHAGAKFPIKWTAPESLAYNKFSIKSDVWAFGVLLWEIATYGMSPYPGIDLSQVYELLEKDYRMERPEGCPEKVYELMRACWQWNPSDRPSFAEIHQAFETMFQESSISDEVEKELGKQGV

In the case of `O=C(Nc1ccc(OC(F)(F)F)cc1)c1cnc(N2CCOCC2)c(-c2ccc(CO)nc2)c1` [Example 149, 6′-(Hydroxymethyl)-2-morpholino-N-(4-(trifluoromethoxy)phenyl)-[3,3′-bipyridine]-5-carboxamide], the IC50 was 3 nM at ABL1 (64-515) [1] and 2.6 nM on ABL1 (64-515) [2].
With `O=C(Nc1ccc(OC(F)(F)F)cc1)c1cnc(N2C3COCC2COC3)c(-c2cncnc2)c1` [Example 150, 6-(3,7-Dioxa-9-azabicyclo[3.3.1]nonan-9-yl)-5-(pyrimidin-5-yl)-N-(4-(trifluoromethoxy)phenyl)nicotinamide], the figures for the IC50 on ABL1 (64-515) [1] and at ABL1 (64-515) [2] were 4 nM and 6.5 nM, respectively.
Consider `CN(CCO)c1ncc(C(=O)Nc2ccc(OC(F)(F)F)cc2)cc1-c1cncnc1` [Example 151, 6-((2-Hydroxyethyl)(methyl)amino)-5-(pyrimidin-5-yl)-N-(4-(trifluoromethoxy)phenyl)nicotinamide], for which the values for the IC50 at ABL1 (64-515) [1] and on ABL1 (64-515) [2] were under 3 nM and under 0.13 nM, respectively.
As for `CN(CCO)c1ncc(C(=O)Nc2ccc(OC(F)(F)F)cc2)cc1-c1cncc(F)c1` [Example 154, 5′-Fluoro-2-((2-hydroxyethyl)(methyl)amino)-N-(4-(trifluoromethoxy)phenyl)-[3,3′-bipyridine]-5-carboxamide], the IC50 is under 3 nM on ABL1 (64-515) [1] and 1 nM at ABL1 (64-515) [2].
As to `CN(CCO)c1ncc(C(=O)Nc2ccc(OC(F)(F)F)cc2)cc1-c1cncc(C#N)c1` [Example 155, 5′-Cyano-2-((2-hydroxyethyl)(methyl)amino)-N-(4-(trifluoromethoxy)phenyl)-[3,3′-bipyridine]-5-carboxamide], the IC50 on ABL1 (64-515) [1] was 11 nM; at ABL1 (64-515) [2], 5 nM.
For `CCN(CCO)c1ncc(C(=O)Nc2ccc(OC(F)(F)F)cc2)cc1-c1cncnc1` [Example 156, 6-(Ethyl(2-hydroxyethyl)amino)-5-(pyrimidin-5-yl)-N-(4-(trifluoromethoxy)phenyl)nicotinamide] the same measures were 5 nM and 1.7 nM.
For `CCN(CCO)c1ncc(C(=O)Nc2ccc(OC(F)(F)F)cc2)cc1-c1cncc(F)c1` [Example 157, 2-(Ethyl(2-hydroxyethyl)amino)-5′-fluoro-N-(4-(trifluoromethoxy)phenyl)-[3,3′-bipyridine]-5-carboxamide], the IC50 at ABL1 (64-515) [1] was under 3 nM; at ABL1 (64-515) [2], 2 nM.
For `CCN(CCO)c1ncc(C(=O)Nc2ccc(OC(F)(F)F)cc2)cc1-c1cncc(C#N)c1` [Example 158, 5′-Cyano-2-(ethyl(2-hydroxyethyl)amino)-N-(4-(trifluoromethoxy)phenyl)-[3,3′-bipyridine]-5-carboxamide], the IC50 on ABL1 (64-515) [1] is 37 nM; on ABL1 (64-515) [2], 2.8 nM.
For `O=C(Nc1ccc(OC(F)(F)Cl)cc1)c1cnc(N2CC[C@@H](O)C2)c(-c2cccnc2F)c1` [Example 172, (R)—N-(4-(Chlorodifluoromethoxy)phenyl)-2′-fluoro-2-(3-hydroxypyrrolidin-1-yl)-[3,3′-bipyridine]-5-carboxamide] the same measures were under 3 nM and 0.3 nM.
For the compound `O=C(Nc1ccc(OC(F)(F)Cl)cc1)c1cnc(N2CC[C@H](CO)C2)c(-c2cncnc2)c1` [Example 174, (S)—N-(4-(Chlorodifluoromethoxy)phenyl)-6-(3-(hydroxymethyl)pyrrolidin-1-yl)-5-(pyrimidin-5-yl)nicotinamide], the IC50 was found to be 3 nM at ABL1 (64-515) [1] and 0.9 nM on ABL1 (64-515) [2].
For `NC[C@@H]1CCN(c2ncc(C(=O)Nc3ccc(OC(F)(F)Cl)cc3)cc2-c2cncnc2)C1` [Example 177, (S)-6-(3-(Aminomethyl)pyrrolidin-1-yl)-N-(4-(chlorodifluoromethoxy)phenyl)-5-(pyrimidin-5-yl)nicotinamide] the same measures were 1 nM and 0.3 nM.
For `CC(=O)NC[C@H]1CCN(c2ncc(C(=O)Nc3ccc(OC(F)(F)Cl)cc3)cc2-c2cncnc2)C1` [Example 178, (R)-6-(3-(Acetamidomethyl)pyrrolidin-1-yl)-N-(4-(chlorodifluoromethoxy)phenyl)-5-(pyrimidin-5-yl)nicotinamide] the same measures were 13 nM and 0.4 nM.
Take `CN(CCO)c1ncc(C(=O)Nc2ccc(OC(F)(F)Cl)cc2)cc1-c1cncnc1` [Example 179, N-(4-(Chlorodifluoromethoxy)phenyl)-6-((2-hydroxyethyl)(methyl)amino)-5-(pyrimidin-5-yl)nicotinamide]: the IC50 on ABL1 (64-515) [1] came out at 2 nM; on ABL1 (64-515) [2], 0.8 nM.
The matching figures for `CN(CCO)c1ncc(C(=O)Nc2ccc(OC(F)(F)Cl)cc2)cc1-c1cncc(F)c1` [Example 180, N-(4-(Chlorodifluoromethoxy)phenyl)-5′-fluoro-2-((2-hydroxyethyl)(methyl)amino)-[3,3′-bipyridine]-5-carboxamide]: 1 nM and 0.4 nM.
For `CCN(CCO)c1ncc(C(=O)Nc2ccc(OC(F)(F)Cl)cc2)cc1-c1cncnc1` [Example 182, N-(4-(Chlorodifluoromethoxy)phenyl)-6-(ethyl(2-hydroxyethyl)amino)-5-(pyrimidin-5-yl)nicotinamide] the same measures were 4 nM and 0.6 nM.
For `CCN(CCO)c1ncc(C(=O)Nc2ccc(OC(F)(F)Cl)cc2)cc1-c1cncc(F)c1` [Example 183, N-(4-(Chlorodifluoromethoxy)phenyl)-2-(ethyl(2-hydroxyethyl)amino)-5′-fluoro-[3,3′-bipyridine]-5-carboxamide], the IC50 came out at 2 nM on ABL1 (64-515) [1] and 0.5 nM at ABL1 (64-515) [2].
On to `CCN(CCO)c1ncc(C(=O)Nc2ccc(OC(F)(F)Cl)cc2)cc1-c1cncc(C#N)c1` [Example 184, N-(4-(Chlorodifluoromethoxy)phenyl)-5′-cyano-2-(ethyl(2-hydroxyethyl)amino)-[3,3′-bipyridine]-5-carboxamide], for which the IC50 at ABL1 (64-515) [1] came out at 6 nM; at ABL1 (64-515) [2], 0.8 nM.
In the case of `N#Cc1cncc(-c2cc(C(=O)Nc3ccc(SC(F)(F)F)cc3)cnc2N2CC[C@@H](O)C2)c1` [Example 188, (R)-5′-Cyano-2-(3-hydroxypyrrolidin-1-yl)-N-(4-((trifluoromethyl)thio)phenyl)-[3,3′-bipyridine]-5-carboxamide], the IC50 came to 4 nM at ABL1 (64-515) [1] and 0.2 nM at ABL1 (64-515) [2].
With `O=C(Nc1ccc(SC(F)(F)F)cc1)c1cnc(N2CC[C@H](CO)C2)c(-c2cncnc2)c1` [Example 189, (S)-6-(3-(Hydroxymethyl)pyrrolidin-1-yl)-5-(pyrimidin-5-yl)-N-(4-((trifluoromethyl)thio)phenyl)nicotinamide], the IC50 on ABL1 (64-515) [1] came to 3 nM; at ABL1 (64-515) [2], 1 nM.
Regarding `O=C(Nc1ccc(SC(F)(F)F)cc1)c1cnc(N2CC[C@H](CO)C2)c(-c2cncc(F)c2)c1` [Example 190, (S)-5′-Fluoro-2-(3-(hydroxymethyl)pyrrolidin-1-yl)-N-(4-((trifluoromethyl)thio)phenyl)-[3,3′-bipyridine]-5-carboxamide], the values for the IC50 at ABL1 (64-515) [1] and on ABL1 (64-515) [2] were 5.9 nM and 0.5 nM, respectively.
As to `N#Cc1cncc(-c2cc(C(=O)Nc3ccc(SC(F)(F)F)cc3)cnc2N2CC[C@H](CO)C2)c1` [Example 191, (S)-5′-Cyano-2-(3-(hydroxymethyl)pyrrolidin-1-yl)-N-(4-((trifluoromethyl)thio)phenyl)-[3,3′-bipyridine]-5-carboxamide], the IC50 at ABL1 (64-515) [1] was 8 nM; on ABL1 (64-515) [2], 0.9 nM.
`CN(CCO)c1ncc(C(=O)Nc2ccc(SC(F)(F)F)cc2)cc1-c1cncnc1` [Example 192, 6-((2-Hydroxyethyl)(methyl)amino)-5-(pyrimidin-5-yl)-N-(4-((trifluoromethyl)thio)phenyl)nicotinamide]: the results for the IC50 at ABL1 (64-515) [1] and at ABL1 (64-515) [2] were 2 nM and 1.3 nM, respectively.
As for `CN(CCO)c1ncc(C(=O)Nc2ccc(SC(F)(F)F)cc2)cc1-c1cncc(F)c1` [Example 193, 5′-Fluoro-2-((2-hydroxyethyl)(methyl)amino)-N-(4-((trifluoromethyl)thio)phenyl)-[3,3′-bipyridine]-5-carboxamide], the figures for the IC50 at ABL1 (64-515) [1] and at ABL1 (64-515) [2] were 2.3 nM and 0.4 nM, respectively.
As for `CN(CCO)c1ncc(C(=O)Nc2ccc(SC(F)(F)F)cc2)cc1-c1cncc(C#N)c1` [Example 194, 5′-Cyano-2-((2-hydroxyethyl)(methyl)amino)-N-(4-((trifluoromethyl)thio)phenyl)-[3,3′-bipyridine]-5-carboxamide], the results for the half-inhibitory concentration (IC50) on ABL1 (64-515) [1] and at ABL1 (64-515) [2] were 5 nM and 1.4 nM, respectively.
The matching figures for `CCN(CCO)c1ncc(C(=O)Nc2ccc(SC(F)(F)F)cc2)cc1-c1cncnc1` [Example 195, 6-(Ethyl(2-hydroxyethyl)amino)-5-(pyrimidin-5-yl)-N-(4-((trifluoromethyl)thio)phenyl)nicotinamide]: 3 nM and under 0.13 nM.
Regarding `CCN(CCO)c1ncc(C(=O)Nc2ccc(SC(F)(F)F)cc2)cc1-c1cncc(F)c1` [Example 196, 2-(Ethyl(2-hydroxyethyl)amino)-5′-fluoro-N-(4-((trifluoromethyl)thio)phenyl)-[3,3′-bipyridine]-5-carboxamide], the IC50 on ABL1 (64-515) [1] amounted to 5.1 nM; at ABL1 (64-515) [2], 0.7 nM.
Take `CCN(CCO)c1ncc(C(=O)Nc2ccc(SC(F)(F)F)cc2)cc1-c1cncc(C#N)c1` [Example 197, 5′-Cyano-2-(ethyl(2-hydroxyethyl)amino)-N-(4-((trifluoromethyl)thio)phenyl)-[3,3′-bipyridine]-5-carboxamide]: the results for the IC50 on ABL1 (64-515) [1] and on ABL1 (64-515) [2] were 16 nM and 1.8 nM, respectively.
Regarding `O=C(Nc1ccc(OC(F)(F)F)c(F)c1)c1cnc(N2CC[C@@H](O)C2)c(-c2cncc(F)c2)c1` [Example 199, (R)-5′-Fluoro-N-(3-fluoro-4-(trifluoromethoxy)phenyl)-2-(3-hydroxypyrrolidin-1-yl)-[3,3′-bipyridine]-5-carboxamide], the IC50 was 3 nM on ABL1 (64-515) [1] and 1.2 nM on ABL1 (64-515) [2].
As for `N#Cc1cncc(-c2cc(C(=O)Nc3ccc(OC(F)(F)F)c(F)c3)cnc2N2CC[C@@H](O)C2)c1` [Example 200, (R)-5′-Cyano-N-(3-fluoro-4-(trifluoromethoxy)phenyl)-2-(3-hydroxypyrrolidin-1-yl)-[3,3′-bipyridine]-5-carboxamide], the IC50 at ABL1 (64-515) [1] was 4 nM; on ABL1 (64-515) [2], 1.2 nM.
